Data taken from US4677108A, “4-oxo-pyrido[2,3-d]pyrimidinone derivatives” (Warner-Lambert Company, priority 1984, dated 1987).
Values belong to the compound of their own block, whether it stands above or below them.

How the values were obtained:
[1] = tested on: a. basilaris (arteria basilaris); assay: Isolated smooth muscle: inhibition of K+-depolarization contraction of vessel rings, a. basilaris; set-up: species or system rabbit; conditions: organ bath, mean diameter 0.5-1.0 mm, read-out: Concentration (IC50) effecting a semimaximal inhibition of the K+-depolarization contraction of vessel rings, a. basilaris
Text: (§1) Of rabbits (vessel ring segments, a basilaris, a. coronaria, a. saphena) are mounted in an organ bath in a way to allow the measurement of isometric contractions. Contractile activity is elicited by a potassium depolarization in Tyrode's solution. This experimetnal set-up is a well known standard model for the identification of substances blocking the calcium channels opened during the potassium depolarization (Fleckenstein,Calcium Antagonism in Heart and Smooth Muscle, J. Wiley & Sons, 1983).
(§2) Concentrations (IC50, mol/l) of compounds
(§3) effecting a semimaximal inhibition of the K+-
(§4) depolarization contraction of vessel rings in the
(§5) organ bath. A. bas. = arteria basilaris, a. cor. =
(§6) arteria coronaria, a. saph. = arteria saphena of
(§7) the rabbit; mean diameter 0.5-1.0 mm.

[2] = tested on: a. coronaria (arteria coronaria); assay: Isolated smooth muscle: inhibition of K+-depolarization contraction of vessel rings, a. coronaria; set-up: species or system rabbit; conditions: organ bath, mean diameter 0.5-1.0 mm, read-out: Concentration (IC50) effecting a semimaximal inhibition of the K+-depolarization contraction of vessel rings, a. coronaria
Text: as §1, §2, §3, §4, §5, §6, §7

[3] = tested on: a. saphena (arteria saphena); assay: Isolated smooth muscle: inhibition of K+-depolarization contraction of vessel rings, a. saphena; set-up: species or system rabbit; conditions: Oryctolagus cuniculus, organ bath, mean diameter 0.5-1.0 mm, read-out: Concentration (IC50) effecting a semimaximal inhibition of the K+-depolarization contraction of vessel rings, a. saphena
Text: as §1, §2, §3, §4, §5, §6, §7

[4] = tested on: isolated papillary muscles of the guinea-pig; assay: Isolated papillary muscles: changes in the contraction amplitude; conditions: field excitation 250/minute; for activation at 1 µM: at ED100, read-out: Δ% (percent change of contraction amplitude versus control) at ED100; for EC100: read-out: ED100 (effective concentration, maximal effect), contraction amplitude; for EC50: read-out: ED50 (effective concentration, semimaximal effect), contraction amplitude
Text: Papillary muscles from the left ventricle of the guinea-pig are mounted, like isolated vessels, in an organ bath in a way to allow the measurement of isometric contractions. Electric excitation is achieved by means of field excitation at a frequency of 250/minute (duration of excitation 10 msec., amplitude supramaximal).
Changes in the contraction amplitude of isolated
papillary muscles of the guinea-pig (excitation
frequency 250/minute, duration of excitation 10 msec.,
excitation amplitude 10-20 V field excitation). IC =
inhibition concentration, ED = effective concentration
in mol/l. Indices 50 and 100 correspond to semi-
maximal and maximal effect. Δ% = percent change of
contraction amplitude versus control.

[5] = tested on: spontaneously hypertensive rats (SHR); assay: Spontaneously hypertensive rat: systolic blood pressure after oral administration; assay type: in vivo
Text: This test model employing hypertension of genetic origin served to test Example Number 1(a) for its antihypertensive efficacy.
Effect of Example Number 1a on the systolic blood
pressure of spontaneously hypertensive rats (SHR)

[6] = tested on: rats anesthetized with inactin; assay: Anesthetized rat (inactin): blood pressure and heart rate; assay type: in vivo; conditions: 100 mg/kg ID (n=3)
Description: This test model using rats anesthetized with inactin served to test Example Number 1a in a dosage of 100 mg/kg ID (n=3). The heart rate remained unchanged whereas the blood pressure fell by 40% below the starting value (75 minutes PA).

[7] = Cavia porcellus, 10 msec., 10-20 V, maximal effect
[8] = Cavia porcellus, 10 msec., 10-20 V, semimaximal effect

SMILES: CCOC(=O)C1=C(C)Nc2nc[nH]c(=O)c2C1c1ccccc1 (racemic) [Example 1, (±)-3,4,5,8-Tetrahydro-7-methyl-4-oxo-5-phenylpyrido[2,3-d]pyrimidine-6-carboxylic acid ethyl ester]
- IC50 [1]: 8000 nM
- IC50 [2]: 10000 nM
- IC50 [3]: 7000 nM
- inhibition at 100 µM ([4]; Cavia porcellus, at IC100, read-out: Δ% (percent change of contraction amplitude versus control) at IC100): 27%
- IC100 ([4]; Cavia porcellus, 10 msec., 10-20 V, maximal effect, read-out: IC100 (inhibition concentration, maximal effect), contraction amplitude): 100 µM
- IC50 ([4]; Cavia porcellus, 10 msec., 10-20 V, semimaximal effect, read-out: IC50 (inhibition concentration, semimaximal effect), contraction amplitude): 20000 nM
- Δ% (percent change of contraction amplitude versus control) at IC50 ([4]; at IC50): -13%

SMILES: CCOC(=O)C1=C(C)Nc2ncn(C(C)C)c(=O)c2C1c1ccccc1F (racemic) [Example 3, (±)-5-(2-Fluorophenyl)-3,4,5,8-tetrahydro-3-isopropyl-7-methyl-4-oxo-pyrido[2,3-d]pyrimidine-6-carboxylic acid ethyl ester]
- IC50 [1]: 20000 nM
- IC50 [2]: 20000 nM
- IC50 [3]: 9000 nM
- activation at 1 µM ([4]; Cavia porcellus): 30%
- EC100 [4, 7]: 1 µM
- EC50 [4, 8]: 22 nM
- Δ% (percent change of contraction amplitude versus control) at ED50 [4]: +15%

Compounds with a lower IC50 [1], results first:

- IC50 [1]: 1800 nM
- IC50 [2]: 1500 nM
- IC50 [3]: 1200 nM
- EC50 [4, 8]: 15 nM
SMILES: CCOC(=O)C1=C(C)Nc2nc[nH]c(=O)c2C1c1ccccc1F (racemic) [Example 1a, (±)-5-(2-Fluorophenyl)-3,4,5,8-tetrahydro-7-methyl-4-oxo-pyrido[2,3-d]pyrimidine-6-carboxylic acid ethyl ester]
- activation at 1 µM ([4]; Cavia porcellus): 52%
- EC100 [4, 7]: 1 µM
- Δ% (percent change of contraction amplitude versus control) at ED50 [4]: +26%
- Change of systol. blood pressure in percent ([5]; 12.5 mg/kg oral, 30 min.): -11%
- Change of systol. blood pressure in percent ([5]; 12.5 mg/kg oral, 120 min.): -4%
- Change of systol. blood pressure in percent ([5]; 12.5 mg/kg oral, 240 min.): +2%
- Change of systol. blood pressure in percent ([5]; 12.5 mg/kg oral, 24 h): -1%
- Change of systol. blood pressure in percent ([5]; 25 mg/kg oral, 30 min.): -24%
- Change of systol. blood pressure in percent ([5]; 25 mg/kg oral, 120 min.): -2%
- Change of systol. blood pressure in percent ([5]; 25 mg/kg oral, 240 min.): -1%
- Change of systol. blood pressure in percent ([5]; 25 mg/kg oral, 24 h): +5%
- Change of systol. blood pressure in percent ([5]; 50 mg/kg oral, 30 min.): -32%
- Change of systol. blood pressure in percent ([5]; 50 mg/kg oral, 120 min.): -8%
- Change of systol. blood pressure in percent ([5]; 50 mg/kg oral, 240 min.): +1%
- Change of systol. blood pressure in percent ([5]; 50 mg/kg oral, 24 h): +4%
- Change of systol. blood pressure in percent ([5]; 100 mg/kg oral, 30 min.): -40%
- Change of systol. blood pressure in percent ([5]; 100 mg/kg oral, 120 min.): -19%
- Change of systol. blood pressure in percent ([5]; 100 mg/kg oral, 240 min.): +2%
- Change of systol. blood pressure in percent ([5]; 100 mg/kg oral, 24 h): -4%
- antihypertensive effect after oral administration ([5]; oral, result in words): good and, dose-dependent, lasting antihypertensive effect
- heart rate [6]: unchanged
- blood pressure fell below the starting value ([6]; 75 minutes PA): 40%

- IC50 [1]: ~400 nM
- IC50 [2]: ~1000 nM
SMILES: CCOC(=O)C1=C(C)Nc2nc[nH]c(=O)c2C1c1ccccc1[N+](=O)[O-] (racemic) [Example 1b, (±)-3,4,5,8-Tetrahydro-7-methyl-5-(2-nitrophenyl)-4-oxo-pyrido[2,3-d]pyrimidine-6-carboxylic acid ethyl ester]

- IC50 [1]: 40 nM
- IC50 [2]: 45 nM
SMILES: CCOC(=O)C1=C(C)Nc2ncn(C(C)C)c(=O)c2C1c1ccccc1 (racemic) [Example 3a, (±)-3,4,5,8-Tetrahydro-3-isopropyl-7-methyl-4-oxo-5-phenyl-pyrido[2,3-d]pyrimidine-6-carboxylic acid ethyl ester]
